From US20100124555A1, “Compositions and Methods for Treating Pancreatic Tumors” (UNIVERSITE DE LA MEDITERRANEE, priority 2007, published 2010)

Key:
[1] = test system: SOJ-6 cells; test: Nuclear staining with DAPI (nuclear fragmentation); type: cell-based, human; conditions: RPMI induced no apoptosis
Description: After treatment with mAb16D10 or cisplatin, cells were washed in ice-cold PBS, fixed and permeablized with 70% ethanol for 5 min at […] and staining with diluted 1/1000 DAPI solution in PBS for 1 min at room temperature. The cells were then washed with PBS. The nuclear morphology of cells was examined by fluorescence microscopy.

[2] = test system: Bcl-2, Bax, caspases 8 and 9, PARP in SOJ-6 cells; test: SDS-PAGE and western blot of apoptosis proteins; type: cell-based, human; conditions: SOJ-6, 24 hours
Description: SOJ-6 cells were grown in 6-well culture plates in RPMI 1640 medium with 10% FCS. At subconfluency, the medium was removed and replaced for 24 hours by fresh RPMI medium with 10% inactivated FCS. SOJ-6 cells were then incubated with mAb16D10 or Cisplatin for 24 hours. At the end of incubation, cells were washed three times with ice-cold PBS (without […] and Mg^++) harvested and pelleted by centrifugation. Pellets were washed twice and lysed at 4° C. in 0.5 ml of lysis buffer (10 mM Tris-HCl pH 7.4, 150 mM NaCl, 1% Triton X-100, 1 mM benzamidine and phosphatase inhibitors). After lysis, homogenates were clarified by centrifugation at 10,000 g for 10 min at 4° C. An aliquot was saved for protein determination using the bicinchoninic acid assay (Pierce, Rockford, Ill.). Proteins (50 μg/lane) in reducing SDS buffer were separated onto 10, 12, or 15% polyacrylamide with 0.1% SDS (according to the molecular weight range of proteins to be separated). After electrophoretic migration, proteins were silver stained. Alternatively, proteins were transferred onto nitrocellulose membranes using a Mini Transblot electrophoretic cell (BioRad, Hercule, Oreg.), and transferred proteins were immunodetected by using appropriate primary and secondary antibodies. After washes, membranes were developed with a chemoluminescent substrate according to the manufacturer's instructions (Roche Diagnostics, Switzerland). In each experiment, a control was included by omitting primary antibodies or by using a non-immune serum.

[3] = test system: PANC-1 cells; test: MTT cell growth and proliferation assay, PANC-1; type: cell-based, human; conditions: PANC-1, 24 hours, gemcitabine 0 to 10 μM or cisplatin 0 to 40 μM
Description: (§1) Cell proliferation was determined using MTT assay as previously described (Mosmann et al., 1983 J Immunol Methods, 65(1-2):55-63). Briefly, cells were seeded at subconfluence in appropriate complete media containing 10% FCS in 96-well culture plates. Media were replaced for 24 h by fresh media with 10% inactivated FCS, including increasing concentrations of antibodies directed against FAPP (pAbL64, mAbJ28 and mAb16D10). Cells were washed with PBS and incubated with 100 μl of MTT (0.5 mg/ml) in complete media for 3 h, washed with PBS and finally incubated with DMSO for 30 min at 37° C. Cell growth was determined by measuring absorbance at 550 nm using a MR 5000 microplate spectrophotometer. All independent determinations were done in triplicate and compared to control.

[4] = test system: 16D10 epitope on the BSDL/FAPP polypeptide of SOJ-6 cells; test: 16D10 epitope expression on drug-treated cells (immunofluorescence and flow cytometry); type: cell-based, human; conditions: for cell morphology of drug-treated cells: SOJ-6, immunofluorescence; for 16D10 staining by immunofluorescence of drug-treated cells: SOJ-6 on glass slides; for Average (16D10 binding, flow cytometry) / 16D10 epitope expression: SOJ-6 treated with 20 μM cisplatin or 5 μM gemcitabine; for Average (16D10 binding, flow cytometry): control 418.7 +/− 50.5; for 16D10 epitope expression: change versus control
Description: Antibody 16D10 binding to SOJ-6 cells following treatment with chemotherapeutic agents was tested in order to assess whether gemcitabine or cisplatin affect the expression of the 16D10 epitope on the BSDL/FAPP polypeptide. Antibody 16D10 binding was assessed by immunofluorescence and flow cytometry following treatment of SOJ-6 cells with 20 μM cisplatin or 5 μM gemcitabine.
For immunofluorescence, SOJ-6 cells were cultured on glass slides and treated or not with gemcitabine or cisplatin, fixed and incubated in the presence of 16D10 and a secondary antibody coupled to fluorescein. Slides were assessed with fluorescence microscope.

[5] = test system: SOJ-6 cells; test: MTT cell growth and proliferation assay, SOJ-6; type: cell-based, human; conditions: SOJ-6, 24 hours, gemcitabine 0 to 10 μM or cisplatin 0 to 40 μM
[6] = test system: SOJ-6 cells; test: MTT cell growth and proliferation assay, SOJ-6; type: cell-based, human; conditions: SOJ-6 treated with raft-disrupting drug or glycosphingolipid biosynthesis inhibitor (10 μM), with mAb16D10
Description: as §1

[7] = test system: SOJ-6 cells; test: Apoptosis by caspase activity (CaspACE FITC-VAD-fmk in situ marker); type: cell-based, human; conditions: SOJ-6, 24 hours; 16D10 25 μg/ml, recombinant chimeric 16D10 5 μg/ml
Description: Cells grown in 8-well plates (Polystyrene vessel, BD Falcon) were treated with mAb16D10 or mouse IgM in RPMI with inactivated FCS for 24 hours prior to the addition of CaspACE FITC-VAD-fmk in situ marker (Promega) at a final concentration of 10 μM in the culture medium according to manufacturer's instructions. Then cells were washed in PBS, fixed for 15 minutes in 2% paraformaldehyde, and washed once again. Upon caspase action on FITC-VAD-fmk, apoptotic cells become fluorescent and the number of fluorescent cells was determined in triplicate on collections of 10 fields randomly examined under the fluorescent microscope.

[8] = test system: pancreatic cancers; conditions: patients with pancreatic cancer; cited from earlier work
[9] = target: feto-acinar pancreatic protein (FAPP), oncofetal glycoisoform of pancreatic bile salt-dependent lipase (BSDL), on the surface of SOJ-6 human pancreatic tumor cells (human) (UniProt P19835); test: isotype control in indirect immunofluorescence flow cytometry (FL1-H) on SOJ-6 cells; antibody concentration not given; row 'Control -': Median 3,02
[10] = target: PANC-1; test: isotype control in indirect immunofluorescence flow cytometry (FL1-H) on PANC-1 cells (no FAPP); antibody concentration not given; row 'Control -': Median 3,22
[11] = target: PANC-1; test: isotype control in indirect immunofluorescence flow cytometry (FL1-H) on PANC-1 cells (no FAPP); main peak near the negative control with a tail to about 100-200 FL1-H; antibody concentration not given; row 'Control -': Mean 4,60
[12] = target: feto-acinar pancreatic protein (FAPP), oncofetal glycoisoform of pancreatic bile salt-dependent lipase (BSDL), on the surface of SOJ-6 human pancreatic tumor cells (human) (UniProt P19835); test: isotype control in indirect immunofluorescence flow cytometry (FL1-H) on SOJ-6 cells; broad histogram from about 2 to about 300 FL1-H, between the negative control and mAb16D10; antibody concentration not given; row 'Control -': Mean 3,43
[13] = test system: NK cells; test: NK cell activation (ADCC): CD107 mobilization and IFN-γ production by flow cytometry; type: cell-based, human; conditions: presence of SOJ-6 cells
Description: Thawed purified human NK cells stimulated or not overnight with 100 UI/mL of IL-2 were mixed with SOJ-6 or B221 cell lines at an effector/target ratio equal to 1, alone or in the presence of rec16D10 (30 μg/mL) or rituxan (10 μg/mL). Cells were then incubated for 4 hours at 37° C. in the presence of FITC conjugated anti-CD107 mAbs (Becton Dickinson) and monensin (sigma). After incubation, cells were washed in PBS containing 2 mM EDTA to disrupt cell conjugates and stained for extracellular markers (PC5 conjugated anti-CD56 and PC7 conjugated anti-CD3 purchased from Beckman coulter). Cells were then fixed and permeabilized using IntraPrep reagent (Beckman Coulter). […] Samples were then analysed on FACScanto (Becton Dickinson).
The chimeric antibody rec16D10 (30 μg/ml) was incubated with target SOJ-6 cells together with NK cells, with or without overnight treatment with IL-2 (100 U/ml) (FIG. 19). As a control, the Rituxan antibody (10 μg/ml) was used with target B221 cells. Effector cells and target cells were used at a ratio of: 1/1 (100000 NK/well). Thawed purified NK cells from two donors (NK1 and NK2) were incubated with the antibodies and target cells. Activation of NK cells was examined by virtue of CD 107 staining and IFN-γ secretion. […] Under similar conditions, approximately 30% of NK1 and NK2 cells secreted IFN-γ (vs. less than 16% and 13% in the absence of antibody or with Rituxan in NK1 and NK2 cells, respectively) (FIG. 21).

[14] = test system: SOJ-6 cells; test: Annexin V / PI apoptosis assay; type: cell-based, human; conditions: antibodies 20 μg/ml, tunicamycin 25 or 50 μg/ml
Description: SOJ-6 cells (20.10^4 cells per well) were seeded onto 24 wells plates 72H before to start the experiment. Cells were incubated either with 20 μg/ml 16D10 IgM, or 20 μg/ml of a further recombinant 16D10 IgG1 antibody which contained the 16D10 variable regions linked fused to a human IgG1 constant region and human kappa light region for the heavy and light chains respectively, 25 μg/ml Tunicamycin or 50 μg/ml Tunicamycin. The AnnexinV/PI stainings were performed after 24H of culture using the AnnexinV-FITC Apoptosis Detection Kit I (BD Pharmingen) according to the manufacturer instructions. Stainings were acquired on a FACScan (Becton Dickinson, San Jose, Calif.) and results were analysed using FlowJo Software.

Sequence of feto-acinar pancreatic protein (FAPP), oncofetal glycoisoform of pancreatic bile salt-dependent lipase (BSDL), on the surface of SOJ-6 human pancreatic tumor cells (human) (P19835 21-753): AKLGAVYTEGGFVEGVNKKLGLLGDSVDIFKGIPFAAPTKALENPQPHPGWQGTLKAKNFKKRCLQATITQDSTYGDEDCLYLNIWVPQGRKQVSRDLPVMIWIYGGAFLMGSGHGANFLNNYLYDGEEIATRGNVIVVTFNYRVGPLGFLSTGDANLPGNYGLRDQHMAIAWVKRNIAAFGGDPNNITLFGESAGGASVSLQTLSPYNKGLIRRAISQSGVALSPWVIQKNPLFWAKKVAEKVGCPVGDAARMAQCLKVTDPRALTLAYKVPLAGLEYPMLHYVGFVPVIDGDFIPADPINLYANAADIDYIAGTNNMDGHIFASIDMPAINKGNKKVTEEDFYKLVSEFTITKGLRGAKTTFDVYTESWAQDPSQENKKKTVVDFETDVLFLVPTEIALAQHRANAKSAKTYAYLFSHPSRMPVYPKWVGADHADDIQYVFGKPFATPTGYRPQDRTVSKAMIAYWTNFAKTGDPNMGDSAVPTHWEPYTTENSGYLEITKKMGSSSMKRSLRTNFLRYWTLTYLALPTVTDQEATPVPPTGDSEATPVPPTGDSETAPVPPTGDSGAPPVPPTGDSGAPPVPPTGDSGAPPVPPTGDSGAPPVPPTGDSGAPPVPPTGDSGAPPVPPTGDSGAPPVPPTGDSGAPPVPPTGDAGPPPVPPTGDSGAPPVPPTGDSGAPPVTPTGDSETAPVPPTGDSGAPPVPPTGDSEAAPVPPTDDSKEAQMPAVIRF

In the case of `N.N.[Cl][Pt][Cl]` [Cisplatin, cis-diaminedichloridoplatinum(II)], the “apoptosis observed by DAPI staining (nuclear fragmentation)” value [1] is reported as “low level of apoptosis”, the “activation of caspase 9 and PARP (immunodetection)” value [2] is reported as “activated” and the “proliferation by MTT assay” value [3] is reported as “dose dependent decrease in proliferation is seen for both cell lines”. For the same compound, the “16D10 surface binding of drug-treated cells (flow cytometry, in words)” value ([4]; SOJ-6) was “decrease in expression of the 16D10 epitope”, the “cell morphology of drug-treated cells” value [4] was “clear morphological changes” and the “16D10 staining by immunofluorescence of drug-treated cells” value [4] was “showed staining with 16D10”. The “Average (16D10 binding, flow cytometry)” value [4] was 324.6 +/− 26.3, the 16D10 epitope expression [4] was −32.5 and the “proliferation by MTT assay” value [5] was “dose dependent decrease in proliferation is seen for both cell lines”.

For `CCCCC[C@@H](O)[C@H]1C(=O)O[C@H](C)[C@@H](O)/C=C/C=C/C=C/C=C/C=C(\C)[C@@H](O)C[C@H](O)C[C@H](O)C[C@H](O)C[C@H](O)C[C@H](O)C[C@@H]1O` [Filipin], the “influence on the antiproliferative effect of mAb16D10” value (“influence” for short) [6] was “decreased”.

For `CCCC[C@@H](C)[C@@H](OC(=O)C[C@@H](CC(=O)O)C(=O)O)[C@H](C[C@@H](C)C[C@H](O)CCCC[C@@H](O)C[C@H](O)[C@H](C)N)OC(=O)C[C@@H](CC(=O)O)C(=O)O` [Fumonisin 1, Fumonisin B1], the “influence” value [6] was “neither L-cyclo-serine (LCS) (an inhibitor of serine palmitoyltransferase) nor Fumonisin 1 or 2 (both inhibitors of dihydroceramide synthetase) interfered”.

For `CCCC[C@@H](C)[C@@H](OC(=O)C[C@@H](CC(=O)O)C(=O)O)[C@H](C[C@@H](C)CCCCCC[C@@H](O)C[C@H](O)[C@H](C)N)OC(=O)C[C@@H](CC(=O)O)C(=O)O` [Fumonisin 2, Fumonisin B2], the “influence” value [6] was “neither L-cyclo-serine (LCS) (an inhibitor of serine palmitoyltransferase) nor Fumonisin 1 or 2 (both inhibitors of dihydroceramide synthetase) interfered”.

With `Nc1ccn(C2OC(CO)C(O)C2(F)F)c(=O)n1` (stereo not shown) [Gemcitabine, 4-amino-1-[3,3-difluoro-4-hydroxy-5-(hydroxymethyl)tetrahydrofuran-2-yl]-1H-pyrimidin-2-one] the “apoptosis by caspase activity (number of apoptotic cells compared to control)” value [7] was “induce apoptosis on SOJ-6 cells”, the “activation of caspase 9 and PARP (immunodetection)” value [2] was “activated” and the “proliferation by MTT assay” value [3] was “relatively resistant to gemcitabine”. For the same compound, the “cell morphology of drug-treated cells” value [4] was “clear morphological changes”, the “16D10 staining by immunofluorescence of drug-treated cells” value [4] was “showed staining with 16D10” and the “Average (16D10 binding, flow cytometry)” value [4] was 419.0 +/− 36.2. For the same compound, the 16D10 epitope expression [4] was 0, the “proliferation by MTT assay” value [5] was “a decrease in proliferation is seen only in SOJ-6 cells” and the “improvement in survival at one year compared to untreated patients” value [8] was 18%.

With `N[C@H]1CONC1=O` [L-cyclo-serine] the “influence” value [6] was “neither L-cyclo-serine (LCS) (an inhibitor of serine palmitoyltransferase) nor Fumonisin 1 or 2 (both inhibitors of dihydroceramide synthetase) interfered”.

In the case of `CCCCCCCCCC(=O)NC(CN1CCOCC1)C(O)c1ccccc1` (stereo not shown) [PDMP, Phenyl-2-decanoylamino-3-morpholino-1-propanol], the “influence” value [6] is reported as “impaired the effect of mAb16D10 on SOJ-6 cell proliferation”.

With IgM mouse SIGMA (antibody) the Median [9] was 19.8, the Median [10] was 4.61 and the Mean [11] was 13. The Mean [12] was 86.7.

With “Rituxan: Rituxan antibody used as a control with target B221 cells [reference compound]” the “NK1 cells secreting IFN-γ” value ([13]; donor NK1, IL-2 treated) was “less than 16%”, the “CD 107-positive staining of NK1 cells” value ([13]; donor NK1, IL-2 treated, E/T 1/1, rec16D10 30 μg/ml, Rituxan 10 μg/ml) was under 30% and the “NK2 cells secreting IFN-γ” value ([13]; donor NK2, IL-2 treated) was under 13%. For the same compound, the “CD 107-positive staining of NK2 cells” value ([13]; donor NK2, IL-2 treated, E/T 1/1, rec16D10 30 μg/ml, Rituxan 10 μg/ml) was under 20%.

With methyl-β-cyclodextrin the “influence” value [6] was “decreased” and the “influence” value ([6]; listed as MBCD) was “decreases or abolishes the cell growth inhibiting activity of antibody 16D10”.

In the case of tunicamycin [reference compound], the “apoptosis by Annexin V and Annexin V/PI staining” value [14] is reported as “induced significant levels of apoptosis”.
